Here are results for four compounds from ChEMBL document CHEMBL1144148, “DNA polymerase beta inhibitors from Baeckea gunniana” (J Nat Prod, 1999).

Usually IC50 stands for the concentration that inhibits the measured activity by half. The inhibition is the percentage by which the read-out fell short of the control. Lower therefore signals a weak effect.

The target of assay [1] is T1, DNA polymerase beta (Rattus norvegicus, UniProt P06766). The experiment in a line: Inhibition of rat DNA polymerase beta in presence of BSA.
Assay [2] deals with T1, DNA polymerase beta. The experiment in a line: Inhibition of rat DNA polymerase beta in absence of BSA.
Assay [3] has as its target DNA polymerase beta (Rattus norvegicus) (UniProt P06766). The experiment in a line: Inhibition of rat DNA polymerase beta at 50 ug/mL.
For assay [4] the target is unchanged. As to the kind of experiment: Inhibition of rat DNA polymerase beta at 10 ug/mL.

SMILES strings stand for the structures.

Regarding `C=C1[C@H]2C3=CC[C@@H]4[C@@]5(C)CC[C@H](O)C(C)(C)[C@@H]5CC[C@@]4(C)[C@]3(C)CC[C@@]2(C(=O)O)CC[C@H]1C`, the IC50 was found to be 5.3 µM in assay [1] and 3.2 µM in assay [2]. Also, the inhibition in assay [3] is 80%; in assay [4], 65%.
For `C=C1CC[C@]2(C(=O)O)CC[C@]3(C)[C@H](CC[C@@H]4[C@@]5(C)CC[C@H](O)C(C)(C)[C@@H]5CC[C@]43C)C2=C1C`, in that order: 5.6 µM, 2.5 µM, 82% and 68%.
Turning to `CC1(C)CC[C@]2(C(=O)O)CC[C@]3(C)C(=CC[C@@H]4[C@@]5(C)CC[C@H](O)C(C)(C)[C@@H]5CC[C@]43C)[C@@H]2C1` [OLEANOLIC_ACID], the IC50 in assay [1] is 7.5 µM; in assay [2], 3.7 µM. Also, the results for the inhibition in assay [3] and in assay [4] were 90% and 42%, respectively.
`C[C@H]1[C@H](C)CC[C@]2(C(=O)O)CC[C@]3(C)C(=CC[C@@H]4[C@@]5(C)CC[C@H](O)C(C)(C)[C@@H]5CC[C@]43C)[C@H]12` [URSOLIC ACID]: the IC50 in assay [1] was found to be 8.5 µM; in assay [2], 4.8 µM. The results for the inhibition in assay [3] and in assay [4] were 90% and 55%, respectively.
